Test results: US5827890A, “Succinamide derivatives, processes for their preparation and their use as gelatinase and collagenase inhibitors” (Celltech Therapeutics Ltd., priority 1993, dated 1998)

Assays:
[1] = molecular target: T1, Collagenase (Homo sapiens, UniProt P03956); test: Enzyme assay to determine Ki values, peptide substrate Dnp-Pro-Leu-Gly-Leu-Trp-Ala-D-Arg-NH2 (collagenase); type: biochemical; details: for Ki: incubated overnight, pH 7.5, Ki (app) assumed to approximate true Ki
T1 sequence (P03956 100-469): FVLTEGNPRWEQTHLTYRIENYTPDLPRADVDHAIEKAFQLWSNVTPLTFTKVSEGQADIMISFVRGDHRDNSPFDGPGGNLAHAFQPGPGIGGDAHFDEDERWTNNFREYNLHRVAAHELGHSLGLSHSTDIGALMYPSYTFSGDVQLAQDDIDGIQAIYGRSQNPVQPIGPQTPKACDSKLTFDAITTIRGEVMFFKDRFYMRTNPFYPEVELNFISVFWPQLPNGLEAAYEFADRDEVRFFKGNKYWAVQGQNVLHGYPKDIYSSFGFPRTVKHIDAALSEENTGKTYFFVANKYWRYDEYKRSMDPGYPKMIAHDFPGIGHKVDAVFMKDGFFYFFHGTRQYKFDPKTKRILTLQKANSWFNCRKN
Experimental: (§1) The activity of the compounds of the invention may be determined as described below.
(§2) All enzyme assays to determine Ki values were performed using the peptide substrate Dnp-Pro-Leu-Gly-Leu-Trp-Ala-D-Arg-NH2. [M. Sharon Stock and Robert D. Gray. JBC 264, 4277-81, 1989). The enzymes cleave at the Gly-Leu bond which can be followed fluorimetrically by measuring the increase in Trp fluorescence emission associated with the removal of the quenching dinitrophenol (Dnp) group.
(§3) Brij 35 at either room temperature or 37° C. depending on the enzyme. The reaction is stopped by adjusting the pH to 4 using 0.1M sodium acetate buffer and the fluorescence read at an excitation wavelength of 280 nm and emission wavelength of 346 nm.
(§4) Ki values can be established using the equation for tight-binding inhibition: [formula] where Vo is the initial rate of reaction in the absence of inhibitor, Vi is the initial rate in the presence of inhibitor, [E] is the total enzyme concentration and [I] the total inhibitor concentration in the reaction mixture.
(§5) For stromelysin and collagenase, Ki (app) was assumed to approximate to the true Ki as [S]<<Km for the substrate hydrolysis. For gelatinase the Ki was determined by performing the analyses at several substrate concentrations. A plot of Ki (app) vs. [S] then gave the true Ki as the value of the y-axis intercept.

[2] = molecular target: Stromelysin-1 (Homo sapiens, UniProt P08254); test: Enzyme assay to determine Ki values, peptide substrate Dnp-Pro-Leu-Gly-Leu-Trp-Ala-D-Arg-NH2 (stromelysin-1); type: biochemical; details: incubated overnight, pH 7.5; Ki (app) assumed to approximate true Ki
Experimental: as §1, §2, §3, §4, §5

[3] = molecular target: T2, Gelatinase 72KD (Homo sapiens, UniProt P08253); test: Enzyme assay to determine Ki values, peptide substrate Dnp-Pro-Leu-Gly-Leu-Trp-Ala-D-Arg-NH2 (gelatinase 72KD); type: biochemical; details: for Ki: incubated overnight, pH 7.5, true Ki from plot of Ki (app) vs. [S]
T2 sequence (P08253 110-660): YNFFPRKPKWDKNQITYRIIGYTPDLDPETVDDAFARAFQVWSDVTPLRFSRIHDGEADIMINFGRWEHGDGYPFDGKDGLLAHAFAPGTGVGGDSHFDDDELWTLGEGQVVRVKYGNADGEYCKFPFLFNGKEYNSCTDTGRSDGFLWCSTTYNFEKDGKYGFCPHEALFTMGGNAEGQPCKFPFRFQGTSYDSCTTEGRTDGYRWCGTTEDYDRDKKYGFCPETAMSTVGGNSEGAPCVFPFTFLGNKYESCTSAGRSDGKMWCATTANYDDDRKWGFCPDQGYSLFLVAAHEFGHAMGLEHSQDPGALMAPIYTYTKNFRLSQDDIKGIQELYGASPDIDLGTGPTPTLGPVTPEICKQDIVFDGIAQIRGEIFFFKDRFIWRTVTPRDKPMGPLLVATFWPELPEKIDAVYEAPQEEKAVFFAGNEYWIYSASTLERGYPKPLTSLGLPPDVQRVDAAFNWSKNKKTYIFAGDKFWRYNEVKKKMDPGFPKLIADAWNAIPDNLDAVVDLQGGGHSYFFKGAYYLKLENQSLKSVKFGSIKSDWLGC
Experimental: as §1, §2, §3, §4, §5

[4] = tested on: gelatinase A (72 K form); test: Pleural cavity assay, oral activity in mice (injected gelatinase A and radiolabelled [14C]-gelatin); type: in vivo; details: for inhibition (comparative experiment): each compound administered at the same dose (dose not stated)
Experimental: The oral activity of the compounds according to the invention may be determined using the pleural cavity assay described below.
A […] solution of the test compound in an appropriate solvent (e.g. 50% polyethylene glycol (PG) plus a variable proportion of dimethyl sulphoxide (DMSO) (if required) is administered orally. After an interval of up to 24 hrs, 0.4 ml of a mixture of an equal volume (2.2 ml) of the enzyme gelatinase A (72 K form at a concentration of 20 nM) and radiolabelled [^14 C]-gelatin (at an approximate concentration of 10 μM i.e. 500 times molar excess) is injected into the pleural cavity and maintained at […]. After 35 min mice are overdosed with anaesthetic, the contents of the pleural cavity aspirated and the aspirates cleared by centrifugation at 4° C. then diluted to 15% in trichloroacetic acid (TCA) and left overnight at 4° C. The resulting TCA precipitate is then separated by centrifugation and radioactivity in each supernatant measured by scintillation counting. Results are expressed as a % inhibition of enzyme activity calculated by comparing the radioactivity measured for each test compound with a control value obtained by performing the same assay in the absence of a gelatinase inhibitor.
A comparative experiment was carried out using the same procedure and the compound of Example 1 [A] and the amides [B], [C] and [D] (prepared in a similar fashion to the compound of Example 1): [drawing 19]

[5] = tested on: vascularisation of sponge implants; test: Inhibition of angiogenesis: vascularisation of sponge implants in mice, xenon clearance; type: in vivo; details: oral, twice per day, 100 mg/kg in PG vehicle, beginning 8 h after sponge implantation
Experimental: Compounds were assessed by their ability to inhibit vascularisation of sponge implants in mice. The amount of vascularisation in this model is determined by the rate of clearance of radioactive xenon from the sponge. Compounds in polyethylene glycol (PG) vehicle were orally administered twice per day at a dose of 100 mg/kg, with administration beginning 8 h after sponge implementation.
FIG. 1 illustrates the result of one experiment using the compound of Example 1. For comparative purposes the following compound (Compound [E]) was used: [drawing 20] (prepared as described in International Patent Application No. PCT/GB 94/00896).
The results are expressed in FIG. 1 as a graph of xenon clearance (expressed as a clearance constant) against time.

[6] = relative to the compound of Example 1

Sequence of Stromelysin-1 (P08254 100-477): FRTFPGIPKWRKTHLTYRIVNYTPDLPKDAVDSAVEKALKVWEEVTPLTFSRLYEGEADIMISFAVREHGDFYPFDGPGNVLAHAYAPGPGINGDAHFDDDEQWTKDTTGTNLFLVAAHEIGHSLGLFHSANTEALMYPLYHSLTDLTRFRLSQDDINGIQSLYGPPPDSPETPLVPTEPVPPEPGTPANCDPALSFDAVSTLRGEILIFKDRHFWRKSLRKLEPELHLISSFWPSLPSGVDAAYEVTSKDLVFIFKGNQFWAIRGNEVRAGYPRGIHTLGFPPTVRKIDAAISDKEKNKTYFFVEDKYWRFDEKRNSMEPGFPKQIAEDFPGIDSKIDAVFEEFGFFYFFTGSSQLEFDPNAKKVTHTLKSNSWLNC

| Ki [1] | Ki [2] | Ki [3] | Structure (SMILES) | % Inhibition of enzyme activity ([4]; at 10 mg/Kg) | inhibition (comparative experiment) [4] | also measured |
| --- | --- | --- | --- | --- | --- | --- |
| 491 nM | 10.2 nM | 0.042 nM | Cc1ccc(CCC[C@H](CC(=O)NO)C(=O)N[C@H](C(N)=O)C(C)(C)C)cc1 [Example 3, N^4 Hydroxy-N^1-(1-(S)-carbamoyl-2.2-dimethylpropyl)-2-(R)-(4-methylphenylpropyl)succinamide] | 95% |  |  |
| 84.4 nM | 9.91 nM | 0.023 nM | CNC(=O)[C@@H](NC(=O)[C@H](CCCc1ccc(C)cc1)CC(=O)NO)C(C)(C)C [Example 7, N^4 -Hydroxy-N^1-(1-(S)-methylaminocarbonyl-2.2-dimethylpropyl)-2-(R)-(4-methylphenylpropyl)succinamide] |  |  | % Inhibition of enzyme activity ([4]; at 80 mg/Kg): 100% |
|  |  |  | CC(C)C[C@H](NC(=O)[C@H](CCCc1ccc(Cl)cc1)CC(=O)NO)C(N)=O [Compound [C], reference compound] |  | 25% |  |
|  |  | 0.21 nM | CC(C)(C)[C@H](NC(=O)[C@H](CCCc1ccc(F)cc1)CC(=O)NO)C(N)=O [Example 6, N^4 -Hydroxy-N^1-(1-(S)-carbamoyl-2.2-dimethylpropyl)-2-(R)-(4-fluorophenylpropyl)succinamide] | 76% |  |  |
|  |  |  | CCNC(=O)[C@@H](NC(=O)[C@H](CCCc1ccc(Cl)cc1)CC(=O)NO)C(C)(C)C [Compound [D], reference compound] |  | 11% |  |
|  |  | 0.023 nM | COc1ccc(CCC[C@H](CC(=O)NO)C(=O)N[C@H](C(N)=O)C(C)(C)C)cc1 [Example 4, N^4 -Hydroxy-N^1-(1-(S)-carbamoyl-2.2-dimethylpropyl)-2-(R)-(4-methoxyphenylpropyl)succinamide] | 82% |  |  |
| 122 nM | 10.9 nM | 0.07 nM | CC(C)(C)[C@H](NC(=O)[C@H](CCCc1ccc(Cl)cc1)CC(=O)NO)C(N)=O [Example 1, N^4 Hydroxy-N^1-(1-(S)-carbamoyl-2.2-dimethylpropyl)-2-(R)-4(chlorophenylpropyl)succinamide] | 100% | 100% | inhibition of vascularisation / xenon clearance (FIG. 1) [5]: substantial inhibition of vascularisation as seen by the marked inhibition of xenon clearance, which was much greater than the inhibition achieved by the non-specific metalloproteinase inhibitor Compound [E] |
|  |  |  | CC(C)[C@H](NC(=O)[C@H](CCCc1ccc(Cl)cc1)CC(=O)NO)C(N)=O [Compound [B], reference compound] |  | 53% |  |
|  |  |  | CNC(=O)[C@@H](NC(=O)[C@@H](CC(=O)NO)CC(C)C)C(C)(C)SC [Compound [E], reference compound] |  |  | fold more potent on collagenase than the compound of Example 1 [1, 6]: approximately 40 fold; fold less potent on gelatinase than the compound of Example 1 [3, 6]: approximately 40 fold |
|  |  |  | CC(C)(C)[C@H](NC(=O)[C@H](CCCc1ccccc1)CC(=O)NO)C(N)=O [Example 2, N^4 -Hydroxy-N^1-(1-(S)-carbamoyl-2.2-dimethylpropyl)-2-(R)-(phenylpropyl)succinamide] | 73% |  |  |
| 22.5 nM | 2.64 nM |  | CNC(=O)[C@@H](NC(=O)[C@H](CCCc1ccc(Cl)cc1)CC(=O)NO)C(C)(C)C [Example 5, N^4 -Hydroxy-N^1-(1-(S)-methylaminocarbonyl-2.2-dimethylpropyl)-2-(R)-(4-chlorophenylpropyl)succinamide] | 64% |  |  |
